According to US20240000741A1, “ALL-TRANS RETINOIC ACID ENHANCES RADIOTHERAPY AND OVERCOMES IMMUNE SUPPRESSION FOR CANCER THERAPY” (The University of Chicago, priority 2022, published 2024):
Counter-ions that a name gives are not always drawn.

Experiments:
[1] = system: MC38 colon carcinoma tumors; experiment: MC38 tumor growth after local ablative IR and/or RA; assay type: in vivo, mouse
immune cells in tumors = experiment: Flow cytometric analysis of immune cells in treated MC38 tumors and draining lymph nodes; assay type: in vivo, mouse; settings: FTY720 administration, after IR+RA treatment
Text: Single cell suspensions were obtained as previously described (40). Cells were blocked with anti-Fc receptor (2.4 G2, BioXCell, Lebanon, New Hampshire, United States of America) and stained for live/dead with Zombie UV, followed staining using antibodies against CD45, CD4, CD8, NK1.1, CD11b, CD11c, Ly6C, Ly6G, F4/80, CD44, CD62L.
The following antibodies were used for high-dimensional flow analysis: BV605-CX3CR, BV650-XCR1, PB-CD11 b, BV510-CD24, BV711-CD64, BV785-F4/80, AF532-CD45, PerCP-Cy5.5-1-A/I-E, PerCP-eFluor710-Flt3, PE-Cy7-CD11c, FITC-Ly6C, PE-iNOS, PE-Dazzle 594-CD103, APC-TNF, Alexa Fluor 700-CD206, and APC-Cy7-SIRPα. For IFN-γ and GrzB (515407) staining, cells were cultured with PMA/ionomycin and brefeldin A (423303, BioLegend, San Diego, California, United States of America) for 6 hours followed by intracellular staining using BD fix/perm intracellular staining kit (554714, BD Biosciences, Franklin Lakes, New Jersey, United States of America). For TNF-α staining, cells were stimulated by PMA/ionomycin and brefeldin A for 4 hours followed by intracellular staining. Foxp3 (17-5773-82, Thermo Fisher Scientific, Waltham, Massachusetts, United States of America) Ki67 (Clone 16-A8, BioLegend, San Diego, California, United States of America) and iNOS staining were performed following Foxp3 staining protocol (00-5523-00, Thermo Fisher Scientific, Waltham, Massachusetts, United States of America). Cells were analyzed on Fortessa flow cytometer (BD Biosciences, Franklin Lakes, New Jersey, United States of America) or on Aurora spectral cytometer (Cytek Biosciences, Fremont, California, United States of America. Data was analyzed with software sold under the tradename FLOWJO software (FlowJo LLC, Ashland, Oregon, United States of America).
Immune cells in tumors 4 days after the start of the treatment were examined. […] In CD11b+ subsets, Ly6C^+ cells, including CD11c^+Ly6C^+ cells, increased by 4-fold in tumors receiving the combination treatment. […] Next, the DC population was examined by analyzing high-dimensional flow cytometry data using traditional dendritic cell (DC) markers. Monocyte-derived dendritic cells (MoDCs) (Ly6C^+CD11 b^+CD11c^+ MHC-II^+CXCR3^+CD64^+SIRPα^+CD206^− cells), a low level of type two dendritic cells (DC2s) (Ly6C^−CD11b^+CD11c^+MHC-11^+CXCR3^+CD64^−SIRPα+CD206^−) and a very low level of type one dendritic cells (DC1s) (Ly6C^−CD11b^−CD11c^+MHC-11^+ CXCR1^+CD103^+CD64^−) were detected in IR and RA treated tumors.

[2] = system: bone marrow-derived DCs (BMDCs); experiment: iNOS induction in bone marrow-derived dendritic cells in vitro; assay type: cell-based, mouse; settings: addition of IFN-γ to BMDCs cultured with RA
Description: Femurs and tibias from 8- to 10-week-old mice were harvested. BMDCs were derived as described (40). The cultured BMDC were collected on day 6 for further experiments. For Inf-MAC induction in vitro, bone marrow cells were cocultured with the presence of 200 μM RA. On day 6, indicated amount of IFN-γ was added directly to the culture. Cells were stained for iNOS and TNF-α after 24-36 hours and analyzed using flow cytometry.

## CC(=N)NCc1cccc(CN)c1.Cl.Cl [1400 W, N-[[-(aminomethyl)phenyl]methyl]-ethanimidamide dihydrochloride]
[1]; iNOS inhibitor 1400 W administered in vivo
  antitumor efficacy of combined IR and RA treatment: significantly diminished

## CCCCCCCCc1ccc(CCC(N)(CO)CO)cc1 [FTY720, fingolimod hydrochloride]
[1]; FTY720 20 μg per dose by gavage every day for 7 days
  efficacy of IR+RA treatment: diminished to the level of IR alone
[1]; FTY720 20 μg per dose by gavage every day for 7 days, IR alone
  response to IR: not affected
Immune cells in tumors
  iNOS production in Inf-MACs in tumors and in circulating blood: abolishes increased iNOS production

B1: IFN-γ: interferon-gamma added to BMDC culture (protein, UniProt P01580 23-155, looked up)
Interferon gamma: HGTVIESLESLNNYFNSSGIDVEEKSLFLDIWRNWQKDGDMKILQSQIISFYLRLFEVLKDNQAISNNISVIESHLITTFFSNSKAKKDAFMSIAKFEVNNPQVQRQAFNELIRVVHQLLPESSLRKRKRSRC
[2]
  iNOS production in BMDCs: synergistically increased iNOS production in a dose dependent manner
